Measurements as given in US11000033B2, “Ketone or oxime compound, and herbicide” (NISSAN CHEMICAL CORPORATION, priority 2014, dated 2021).

Experiments:
Assay type in all cases: in vivo
Scirpus juncoides [1] = assay: Test Example 1: herbicidal activity, application before weed generation in submerged conditions (symbol B); conditions: application herbicide amount 320 g/ha
How it was run: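 Paddy pre-emergence test. Formulated emulsion, water-diluted to a predetermined rate, is applied to floodwater on sowing day; rice transplanted at 2.5 leaves. Effect read at 3 weeks on a 0–5 herbicidal-ratio scale.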

[2] = system: Echinochloa oryzacola Vasing.; assay: Test Example 2: herbicidal activity, application during weed generation in submerged conditions (symbol A); conditions: Table 23; application herbicide amount 320 g/ha; grade 0-5 by criteria of Test Example 1
How it was run: (§1)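 Steps: fill pots with alluvial soil; add water to 4 cm depth; co-sow the three weeds; grow at 25° C. to 30° C. under glass; at 1–2 leaves, dose the floodwater with diluted emulsion; rate damage visually after 3 weeks.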

Scirpus juncoides [3] = assay: Test Example 2: herbicidal activity, application during weed generation in submerged conditions (symbol B); conditions: Table 23; application herbicide amount 320 g/ha; grade 0-5 by criteria of Test Example 1
How it was run: as §1

[4] = system: Echinochloa crus-galli var. crus-galli; assay: Test Example 3: herbicidal effect by foliage application, Wagner pot (symbol H); conditions: application herbicide amount 320 g/ha, Table 24
How it was run: (§2)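 Post-emergence, paddy-type test: seedlings 14 d old in shallow-flooded (0.1–0.5 cm) alluvial soil, 25–30 °C greenhouse. Emulsion diluted to target rate, sprayed on leaves. Read-out: visual effect on each species at 3 weeks, per set criteria.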

Cyperus difformis = assay: Test Example 3: herbicidal effect by foliage application, Wagner pot (symbol E); conditions: application herbicide amount 320 g/ha, Table 24
How it was run: as §2

Setaria viridis = assay: Test Example 4: herbicidal effect by soil treatment (symbol G); conditions: application herbicide amount 320 g/ha
How it was run: (§3)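 Seeds were sown in sterilized diluvial soil, covered with about 1.5 cm of soil, and the soil surface was sprayed with a water-diluted emulsion of the compound at a predetermined rate. Plants grew in a greenhouse at 25° C. to 30° C.; effects were scored visually 3 weeks after application.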

Avena fatua = assay: Test Example 4: herbicidal effect by soil treatment (symbol I); conditions: application herbicide amount 320 g/ha
How it was run: as §3

Alopecurus myosuroides [5] = assay: Test Example 4: herbicidal effect by soil treatment (symbol J); conditions: application herbicide amount 320 g/ha
How it was run: as §3

Apera spica-venti [6] = assay: Test Example 4: herbicidal effect by soil treatment (symbol L); conditions: application herbicide amount 320 g/ha
How it was run: as §3

Abutilon theophrasti = assay: Test Example 4: herbicidal effect by soil treatment (symbol M); conditions: application herbicide amount 320 g/ha
How it was run: as §3

Veronica persica = assay: Test Example 4: herbicidal effect by soil treatment (symbol R); conditions: application herbicide amount 320 g/ha
How it was run: as §3

Alopecurus myosuroides [7] = assay: Test Example 5: herbicidal effect by foliage application, plastic box (symbol J); conditions: 320 g/ha, 3 weeks after application
How it was run: (§4)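 Effect is rated 3 weeks after a foliar spray of water-diluted emulsion concentrate at a predetermined herbicide amount. Plants had grown 14 days in a 25° C. to 30° C. greenhouse from seed in sterilized diluvial soil.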

Apera spica-venti [8] = assay: Test Example 5: herbicidal effect by foliage application, plastic box (symbol L); conditions: 320 g/ha, 3 weeks after application
How it was run: as §4

corn = assay: Test Example 5: effect on crop by foliage application, plastic box (symbol c); conditions: 320 g/ha, 3 weeks after application
How it was run: (§5)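 Box culture: sterile diluvial soil, seeds spot-sown, ~1.5 cm cover, raised under glass at 25–30° C.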

rapeseed = assay: Test Example 5: effect on crop by foliage application, plastic box (symbol g); conditions: 320 g/ha, 3 weeks after application
How it was run: as §5

Structure (SMILES) | B (Scirpus juncoides) herbicidal effect grade (Scirpus juncoides [1]) | Herbicidal effect grade, A: Echinochloa oryzacola Vasing. [2] | Herbicidal effect grade, B: Scirpus juncoides (Scirpus juncoides [3]) | H (Echinochloa crus-galli var. crus-galli) herbicidal effect grade [4] | E herbicidal effect grade (Cyperus difformis) | Herbicidal effect grade, G: Setaria viridis (Setaria viridis) | Herbicidal effect grade, I: Avena fatua (Avena fatua) | Herbicidal effect grade, J: Alopecurus myosuroides (Alopecurus myosuroides [5]) | Herbicidal effect grade, L: Apera spica-venti (Apera spica-venti [6]) | Herbicidal effect grade, M: Abutilon theophrasti (Abutilon theophrasti) | Herbicidal effect grade, R: Veronica persica (Veronica persica) | J: Alopecurus myosuroides, herbicidal effect grade (Alopecurus myosuroides [7]) | L: Apera spica-venti, herbicidal effect grade (Apera spica-venti [8]) | c: corn, effect on crop grade (corn) | g: rapeseed, effect on crop grade (rapeseed)
COCCON=C(CC1CC(O)=C(c2c(C)cc(Br)cc2C)C1=O)C1CC1 (centres unmarked) [9-019] | 0 (Herbicidal ratio of 5% or lower (almost no effect)) | 3 (Herbicidal ratio of 40% or higher and lower than 70%) | 0 (Herbicidal ratio of 5% or lower (almost no effect)) | 5 (Herbicidal ratio of 90% or more (almost completely withered)) | 4 (Herbicidal ratio of 70% or higher and lower than 90%) | 5 (Herbicidal ratio of 90% or more (almost completely withered)) | 0 (Herbicidal ratio of 5% or lower (almost no effect)) | 5 (Herbicidal ratio of 90% or more (almost completely withered)) | 0 (Herbicidal ratio of 5% or lower (almost no effect)) | 0 (Herbicidal ratio of 5% or lower (almost no effect)) | 0 (Herbicidal ratio of 5% or lower (almost no effect)) | 4 (Herbicidal ratio of 70% or higher and lower than 90%) | 1 (Herbicidal ratio of 5% or higher and lower than 20%) | 5 (Herbicidal ratio of 90% or more (almost completely withered)) | 1 (Herbicidal ratio of 5% or higher and lower than 20%)
Cc1cc(Br)cc(C)c1C1=C(O)CC(CC(=NOCC(F)(F)F)C2CC2)C1=O (centres unmarked) [9-009] | 0 (Herbicidal ratio of 5% or lower (almost no effect)) | 2 (Herbicidal ratio of 20% or higher and lower than 40%) | 0 (Herbicidal ratio of 5% or lower (almost no effect)) | 5 (Herbicidal ratio of 90% or more (almost completely withered)) | 4 (Herbicidal ratio of 70% or higher and lower than 90%) | 1 (Herbicidal ratio of 5% or higher and lower than 20%) | 0 (Herbicidal ratio of 5% or lower (almost no effect)) |  | 1 (Herbicidal ratio of 5% or higher and lower than 20%) | 0 (Herbicidal ratio of 5% or lower (almost no effect)) | 1 (Herbicidal ratio of 5% or higher and lower than 20%) | 4 (Herbicidal ratio of 70% or higher and lower than 90%) | 5 (Herbicidal ratio of 90% or more (almost completely withered)) | 3 (Herbicidal ratio of 40% or higher and lower than 70%) | 3 (Herbicidal ratio of 40% or higher and lower than 70%)
